For 65 compounds, IC50 results are on record in PubChem BioAssay AID588568 (The Scripps Research Institute Molecular Screening Center, 2011).

SMILES strings stand for the structures. Values joined by “and” are separate entries in the source; they are usually repeats but may differ in a detail not shown here. Equal values may be shown once. Active and inactive are the calls of the source. The rule behind the calls is not given here. Some results are limits rather than exact numbers.

For this experiment, the target named is Melanin-concentrating hormone receptor 1 (Homo sapiens) (UniProt Q99705). Put plainly: MCHR1 antagonists, dose response, counter-screen for GPR7 antagonist project, cell-based, fluorescence, set 4 (AID 588568). As to conditions: MCHR1-expressing cells, fluorescence antagonist assay. For orientation: The purpose of a counterscreen is to sort out artefacts and off-target activity.

For orientation: IC50 means the point on the concentration scale where inhibition reaches its midpoint. `COc1ccc(Oc2c(Cl)c(C3=CCCCC3)nn(Cc3ccccc3C)c2=O)cc1`: the IC50 (run 1) was 3.57 µM.
On the same count and under the same terms, then `COc1ccc(Oc2c(Cl)cnn(Cc3cccc(C)c3)c2=O)cc1`, with 4.7 µM; and `COc1ccccc1CNC(=O)c1cnn(-c2ccc(Cl)cc2)c1C(F)(F)F`, with 7.23 µM; and `COc1ccc(Oc2c(Cl)cnn(-c3ccc(-c4ccccc4)cc3)c2=O)cc1`, with 7.26 µM and 4.63 µM.
`CCc1ccc(Oc2c(Cl)cnn(C3c4ccccc4-c4ccccc43)c2=O)cc1`: the IC50 (run 1) is > 20 µM (inactive).
Same read-out and setting: then `COc1ccc(Oc2c(Cl)cnn(CC(=O)c3ccc(C)cc3C)c2=O)cc1`, with 2.64 µM; and `COc1ccc(Oc2c(Cl)cnn(Cc3ccc(C(F)(F)F)cc3)c2=O)cc1`, with 1.78 µM; and `COc1ccc(Oc2c(Cl)cnn(Cc3c(C)cc(C)cc3C)c2=O)cc1`, with 7.5 µM.
On the same count and under the same terms, then `COc1ccc(Oc2c(Cl)c(-c3ccccc3)nn(Cc3ccccc3C)c2=O)cc1`, with 8.7 µM; and `O=c1c(Oc2ccc(Oc3ccccc3)cc2)c(Cl)cnn1Cc1cccc2ccccc12`, with > 20 µM (inactive).
The same measure, in the same setting: then `COc1ccc(Oc2c(Cl)cnn(C3=Nc4cc(Cl)ccc4Oc4ccccc43)c2=O)cc1`, with 1.11 µM; and `COc1ccc(Oc2c(Cl)cnn(Cc3ccc(OC(C)C)c(C#N)c3)c2=O)cc1`, with 5.54 µM.
Consider `COCc1ccc(Oc2c(Cl)cnn(Cc3cccc4ccccc34)c2=O)cc1`, for which the IC50 (run 1) was > 20 µM (inactive).
The same measure, in the same setting: the result for `CCCC(=O)OCC(c1cccc2ccccc12)n1ncc(Cl)c(Oc2ccc(OC)cc2)c1=O` (stereo unspecified) reads > 20 µM (inactive); that for `O=Cc1ccc(Oc2c(Cl)cnn(Cc3cccc4ccccc34)c2=O)cc1`, 7.33 µM; that for `COc1ccc(Oc2c(Cl)cnn(CC3CCCC3)c2=O)cc1`, “inactive”.
On the same count and under the same terms, then `Cc1cc(C)cc(-n2ncc(Cl)c(Oc3ccc(CO)cc3)c2=O)c1`, with 2.25 µM; and `C=Cc1cnn(Cc2cccc3ccccc23)c(=O)c1Oc1ccc(OC)cc1`, with 1.69 µM.
As for `COc1ccc(Oc2c(Cl)cnn(Cc3ccc(-c4ccccc4)cc3)c2=O)cc1`, for the setting “run 1”, the IC50 was > 20 µM (inactive).
Turning to `COc1ccc(Oc2c(Cl)cnn(C(CO)c3cccc4ccccc34)c2=O)cc1` (stereo unspecified), the IC50 (run 1) is 9.05 µM.
The same measure, in the same setting: then `COc1ccc(Oc2c(Cl)cnn(-c3nc4ccccc4c4ccccc34)c2=O)cc1`, with > 20 µM (inactive); and `COc1ccc(Oc2c(Cl)c(OC)nn(-c3cccc(C)c3)c2=O)cc1`, with 8.55 µM; and `CC(=O)OCc1ccc(Oc2c(Cl)cnn(Cc3cccc4ccccc34)c2=O)cc1`, with 6 µM.
Regarding `Cc1cccc(Cn2ncc(Cl)c(Oc3ccc(CO)cc3)c2=O)c1`, the IC50 (run 1) is > 11.5 µM (inactive).
Still for that read-out and setting: then `COc1ccc(Oc2c(Cl)cnn(-c3ccc(OC(C)C)cc3)c2=O)cc1`, with 6.5 µM.
Still for that read-out and setting: then `O=C(C1CCCN1Cc1ccc(Cl)c(Cl)c1)N1CCN(c2ccc([N+](=O)[O-])cc2)CC1` (stereo unspecified), with 2.13 µM; and `COc1ccc(Oc2c(Cl)cnn(-c3ccc(Cl)cc3)c2=O)cc1`, with “inactive”.
Still for that read-out and setting: the result for `Cc1ccc(CN2CCCCC2C(=O)N2CCN(c3ccc([N+](=O)[O-])cc3)CC2)cc1C` (stereo unspecified) reads 3.3 µM; that for `COc1ccc(Oc2c(Cl)c(C)nn(Cc3ccccc3C)c2=O)cc1`, 3.89 µM.
For the compound `COc1ccc(Oc2c(Cl)cnn(Cc3ccc(C4CCCCC4)c4ccccc34)c2=O)cc1`, the IC50 (run 1) is > 20 µM (inactive).
Turning to `CCOc1ccc(Cn2ncc(Cl)c(Oc3ccc(OC)cc3)c2=O)cc1C#N`, the IC50 (run 1) was 9.37 µM.
Still for that read-out and setting: the result for `COc1ccc(Oc2c(Cl)c(-c3ccsc3)nn(Cc3ccccc3C)c2=O)cc1` reads 8.04 µM; that for `COC(=O)c1ccc(Oc2c(Cl)cnn(Cc3cccc4ccccc34)c2=O)cc1`, > 20 µM (inactive).
The same measure, in the same setting: then `COc1ccc(Oc2c(Cl)cnn(C3=Nc4ccccc4Sc4ccccc43)c2=O)cc1`, with > 20 µM (inactive); and `O=C(O)c1ccc(Oc2c(Cl)cnn(Cc3cccc4ccccc34)c2=O)cc1`, with > 20 µM (inactive); and `COc1ccc(Oc2c(-c3ccsc3)c(-c3ccsc3)nn(Cc3ccccc3C)c2=O)cc1`, with > 20 µM (inactive).
Still for that read-out and setting: then `COc1ccc(Oc2c(Cl)cnn(Cc3ccc(Cl)cc3Cl)c2=O)cc1`, with 1.45 µM.
Turning to `COc1ccc(Oc2c(Cl)cnn(-c3ccc(C(F)(F)F)cc3)c2=O)cc1`, the half-inhibitory concentration (IC50) is, setting by setting: (run 1) 9.6 µM; (run 2) 9.81 µM.
Take `CC(C)c1ccc(-n2ncc(Cl)c(Oc3ccc(CO)cc3)c2=O)cc1`: the IC50 (run 1) is 4.73 µM.
Same read-out and setting: then `COc1ccc(Oc2c(-c3ccccc3C)c(-c3ccccc3C)nn(Cc3ccccc3C)c2=O)cc1`, with “inactive”; and `COc1ccc(Oc2c(Cl)c(-c3ccc(C(F)(F)F)cc3)nn(Cc3ccccc3C)c2=O)cc1`, with “inactive”; and `COc1ccc(Oc2c(/C=N\O)cnn(Cc3cccc4ccccc34)c2=O)cc1`, with “inactive”.
Same read-out and setting: the result for `Cc1cc(C)cc(Cn2ncc(Cl)c(Oc3ccc(CO)cc3)c2=O)c1` reads 3.02 µM.
The same measure, in the same setting: then `COc1ccc(Oc2c(C)cnn(Cc3cccc4ccccc34)c2=O)cc1`, with 5.41 µM.
Regarding `COc1ccc(Oc2c(Cl)cnn(-c3ccc4ccccc4c3)c2=O)cc1`, the IC50 (run 1) was 0.438 µM.
Regarding `COc1ccc(Oc2ccn(-c3ccc(C)cc3)c(=O)c2Cl)cc1`, for the setting “run 1”, the IC50 is 2.79 µM.
On the same count and under the same terms, then `CCOc1ccc(Oc2ccnn(Cc3cccc4ccccc34)c2=O)cc1`, with 4.6 µM; and `Cc1cc(C)cc(-n2ncc(Cl)c(Oc3ccc(Oc4ccccc4)cc3)c2=O)c1`, with 2.24 µM; and `COc1ccc(Cn2ncc(Cl)c(Oc3ccc(OC)cc3)c2=O)cc1`, with “inactive”.
Same read-out and setting: the result for `COc1ccc(Oc2c(Cl)c(-c3ccc(C)cc3)nn(Cc3ccccc3C)c2=O)cc1` reads 6.43 µM.
`COc1cccc(Oc2c(Cl)cnn(-c3cc(C)cc(C)c3)c2=O)c1`: the IC50 (run 1) is > 20 µM (inactive).
On the same count and under the same terms, then `Cc1ccccc1Cn1ncc(Oc2ccc(CO)cc2)c(Cl)c1=O`, with 6.54 µM; and `Cc1cc(CN2CCCCC2C(=O)N2CCN(c3ccc([N+](=O)[O-])cc3)CC2)ccc1Cl` (stereo unspecified), with 1.42 µM; and `COc1ccc(Oc2c(Cl)cnn(C(c3ccccc3)c3ccccc3C)c2=O)cc1` (stereo unspecified), with “inactive”.
Same read-out and setting: then `COc1ccc(Oc2c(-c3ccc(C)cc3)c(-c3ccc(C)cc3)nn(Cc3ccccc3C)c2=O)cc1`, with > 20 µM (inactive).
Take `Cc1cc(C)cc(-n2nc(C#N)c(=O)[nH]c2=O)c1`: for the setting “run 1”, the IC50 is > 20 µM (inactive).
As to `COc1ccc(Oc2c(Cl)cnn(C(C)c3cccc4ccccc34)c2=O)cc1` (stereo unspecified), the IC50 (run 1) is 8.69 µM.
The same measure, in the same setting: the result for `COc1ccc(Oc2c(Cl)cnn(Cc3ccc(C)c(C)c3)c2=O)cc1` reads 5.1 µM; that for `COc1ccc(Oc2c(Cl)cnn(C(C(=O)OC(C)C)c3ccccc3Cl)c2=O)cc1` (stereo unspecified), > 11.5 µM (inactive); that for `COc1ccc(Oc2c(Cl)cnn(Cc3ccc(C)c4ccccc34)c2=O)cc1`, “inactive”.
Still for that read-out and setting: the result for `COc1ccc(Oc2c(Cl)cnn(Cc3cc(Cl)ccc3Cl)c2=O)cc1` reads 4.29 µM; that for `COc1ccc(Oc2c(Cl)cnn(-c3ccc(-c4ccc(C)cc4)cc3)c2=O)cc1`, > 20 µM (inactive).
The same measure, in the same setting: then `COc1ccc(Oc2c(Cl)cnn(C3=Nc4ccccc4Oc4ccccc43)c2=O)cc1`, with 2.68 µM.
Take `C=Cc1ccc(Cn2ncc(Cl)c(Oc3ccc(OC)cc3)c2=O)cc1`: under “run 1”, the IC50 is 9.05 µM.
`COc1ccc(Oc2c(Cl)cnn(Cc3cccc(C(F)(F)F)c3)c2=O)cc1`: the IC50 (run 1) is 4.7 µM.
